Reference: ChEMBL document CHEMBL1909046, “DrugMatrix in vitro pharmacology data”

Legend:
[1] = DRUGMATRIX: GABAA, Flunitrazepam, Central radioligand binding (ligand: [3H] Flunitrazepam); type: cell membranes, Rattus norvegicus, Wistar, Brain, Membrane; conditions: Not Active = under 50% inhibition at 10 µM
[2] = DRUGMATRIX: Glutamate, NMDA, Agonism radioligand binding (ligand: [3H] CGP-39653); type: cell membranes, Rattus norvegicus, Wistar, Cerebral cortex, Membrane; conditions: Not Active = under 50% inhibition at 10 µM
[3] = biological target: 5-hydroxytryptamine receptor 4 (Cavia porcellus, UniProt O70528); type: cell membranes, Dunkin-Hartley, Striatum, Membrane; also: in other assays of this panel Not Active means under 50% inhibition at 10 µM
[4] = DRUGMATRIX: Potassium Channel [KATP] radioligand binding (ligand: [3H] Glyburide); type: cell membranes, Membrane; conditions: hit-t15; Not Active = under 50% inhibition at 10 µM
[5] = biological target: Epidermal growth factor receptor (Homo sapiens, UniProt P00533); assay: DRUGMATRIX: Protein Tyrosine Kinase, EGF Receptor enzyme inhibition (substrate: Poly(Glu:Tyr)); type: cell-based, Insect cells; conditions: Not Active = under 50% inhibition at 10 µM
[6] = biological target: Beta-1 adrenergic receptor (Homo sapiens, UniProt P08588); assay: DRUGMATRIX: Adrenergic beta1 radioligand binding (ligand: [125I] Cyanopindolol); type: cell membranes, CHO-K1, Membrane; conditions: Not Active = under 50% inhibition at 10 µM
Beta-1 adrenergic receptor, sequence (P08588 whole entry): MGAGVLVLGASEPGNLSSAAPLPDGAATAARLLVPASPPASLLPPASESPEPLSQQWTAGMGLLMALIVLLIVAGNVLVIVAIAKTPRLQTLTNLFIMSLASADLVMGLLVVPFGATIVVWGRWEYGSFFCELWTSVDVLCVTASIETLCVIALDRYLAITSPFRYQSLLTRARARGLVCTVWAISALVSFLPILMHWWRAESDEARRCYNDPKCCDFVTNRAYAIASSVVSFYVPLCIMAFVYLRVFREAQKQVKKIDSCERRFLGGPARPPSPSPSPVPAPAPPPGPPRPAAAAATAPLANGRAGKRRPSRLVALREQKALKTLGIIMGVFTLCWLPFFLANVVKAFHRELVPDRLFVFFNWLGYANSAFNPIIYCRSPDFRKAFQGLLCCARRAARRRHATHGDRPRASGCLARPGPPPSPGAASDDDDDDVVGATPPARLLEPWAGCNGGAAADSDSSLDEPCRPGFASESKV

5-hydroxytryptamine receptor 4, sequence (O70528 whole entry): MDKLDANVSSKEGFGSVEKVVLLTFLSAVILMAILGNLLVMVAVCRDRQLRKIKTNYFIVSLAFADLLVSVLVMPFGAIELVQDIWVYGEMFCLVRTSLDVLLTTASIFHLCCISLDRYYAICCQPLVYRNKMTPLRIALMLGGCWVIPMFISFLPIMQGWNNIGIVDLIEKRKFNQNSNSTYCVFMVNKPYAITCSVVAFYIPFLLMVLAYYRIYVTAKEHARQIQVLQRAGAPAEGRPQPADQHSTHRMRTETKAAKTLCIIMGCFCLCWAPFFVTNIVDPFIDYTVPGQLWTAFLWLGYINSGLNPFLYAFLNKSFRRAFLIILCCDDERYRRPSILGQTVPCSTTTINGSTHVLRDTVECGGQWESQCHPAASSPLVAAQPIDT

For `CC1(C)O[C@@H]2C[C@H]3[C@@H]4CCC5=CC(=O)C=C[C@]5(C)[C@@]4(F)[C@@H](O)C[C@]3(C)[C@]2(C(=O)CO)O1` [TRIAMCINOLONE ACETONIDE], the IC50 [1] was “Not Active”, the Ki [1] was “Not Active” and the IC50 [2] was “Not Active”. For the same compound, the Ki [2] was “Not Active”, the IC50 [3] was “Not Active” and the IC50 [4] was “Not Active”. For the same compound, the Ki [4] was “Not Active”, the IC50 ([5]; insect cells) was “Not Active” and the IC50 ([6]; cho-k1) was “Not Active”.

In the case of `N#CC(C#N)=Cc1ccc(O)c(O)c1` [TYRPHOSTIN 23], the IC50 [1] is reported as “Not Active”, the Ki [1] is reported as “Not Active” and the IC50 [2] is reported as “Not Active”. The Ki [2] was “Not Active”, the IC50 [3] was “Not Active” and the IC50 [4] was “Not Active”. The Ki [4] was “Not Active” and the IC50 ([6]; cho-k1) was “Not Active”.

For `Nc1nc2nc[nH]c2c(=S)[nH]1` [THIOGUANINE], the IC50 [1] was “Not Active”, the Ki [1] was “Not Active” and the IC50 [2] was “Not Active”. The Ki [2] was “Not Active”, the IC50 [3] was “Not Active” and the IC50 ([5]; insect cells) was “Not Active”. For the same compound, the IC50 ([6]; cho-k1) was “Not Active”.

In the case of `NS(=O)(=O)c1cc2c(cc1Cl)NC(C(Cl)Cl)NS2(=O)=O` (stereo not given) [TRICHLORMETHIAZIDE], the IC50 [1] is reported as “Not Active”, the Ki [1] is reported as “Not Active” and the IC50 [2] is reported as “Not Active”. For the same compound, the Ki [2] was “Not Active”, the IC50 [3] was “Not Active” and the IC50 [4] was “Not Active”. For the same compound, the Ki [4] was “Not Active”, the IC50 ([5]; insect cells) was “Not Active” and the IC50 ([6]; cho-k1) was “Not Active”.

With `CC(C)N1CCN(c2ccc(OCC3COC(Cn4cncn4)(c4ccc(Cl)cc4Cl)O3)cc2)CC1` (stereo not given) [TERCONAZOLE] the IC50 [1] was “Not Active”, the Ki [1] was “Not Active” and the IC50 [2] was “Not Active”. The Ki [2] was “Not Active”, the IC50 ([3]; read-out: IC50) was 14.8 µM and the Ki ([3]; read-out: Ki) was 2.46 µM. For the same compound, the IC50 [4] was “Not Active”, the Ki [4] was “Not Active” and the IC50 ([5]; insect cells) was “Not Active”.

In the case of `CN1CCN(CCCN2c3ccccc3Sc3ccc(Cl)cc32)CC1` [PROCHLORPERAZINE], the IC50 ([3]; read-out: IC50) is reported as 1.16 µM, the Ki ([3]; read-out: Ki) is reported as 0.194 µM and the IC50 ([5]; insect cells) is reported as “Not Active”. For the same compound, the IC50 ([6]; cho-k1) was “Not Active”.

With `CC(C)(C)NC(=O)[C@@H]1C[C@@H]2CCCC[C@@H]2CN1C[C@@H](O)[C@H](Cc1ccccc1)NC(=O)[C@H](CC(N)=O)NC(=O)c1ccc2ccccc2n1` the IC50 [1] was “Not Active”, the Ki [1] was “Not Active” and the IC50 [2] was “Not Active”. For the same compound, the Ki [2] was “Not Active”, the IC50 [3] was “Not Active” and the IC50 [4] was “Not Active”. The Ki [4] was “Not Active”, the IC50 ([5]; insect cells) was “Not Active” and the IC50 ([6]; cho-k1) was “Not Active”.

In the case of SODIUM NITROPRUSSIDE, the IC50 [1] is reported as “Not Active”, the Ki [1] is reported as “Not Active” and the IC50 [2] is reported as “Not Active”. For the same compound, the Ki [2] was “Not Active”, the IC50 [3] was “Not Active” and the Ki [3] was “Not Active”. For the same compound, the IC50 [4] was “Not Active”, the Ki [4] was “Not Active” and the IC50 ([5]; insect cells) was “Not Active”. For the same compound, the Ki ([5]; insect cells) was “Not Active”, the IC50 ([6]; cho-k1) was “Not Active” and the Ki ([6]; cho-k1) was “Not Active”.

For `NC[C@H]1CC[C@H](C(=O)O)CC1` [TRANEXAMIC ACID], the IC50 [1] was “Not Active”, the Ki [1] was “Not Active” and the IC50 [2] was “Not Active”. The Ki [2] was “Not Active”, the IC50 [3] was “Not Active” and the IC50 [4] was “Not Active”. For the same compound, the Ki [4] was “Not Active”, the IC50 ([5]; insect cells) was “Not Active” and the IC50 ([6]; cho-k1) was “Not Active”.

In the case of `CC/C(=C(\c1ccccc1)c1ccc(OCCN(C)C)cc1)c1ccccc1` [TAMOXIFEN], the IC50 [3] is reported as “Not Active”, the IC50 ([5]; read-out: IC50) is reported as 3.55 µM and the IC50 ([6]; read-out: IC50) is reported as 17.3 µM. It also gave a Ki ([6]; read-out: Ki) of 9.98 µM.

For `N[C@@H]1[C@H]2CN(c3nc4c(cc3F)c(=O)c(C(=O)O)cn4-c3ccc(F)cc3F)C[C@@H]12` [TROVAFLOXACIN], the IC50 [1] was “Not Active”, the Ki [1] was “Not Active” and the IC50 [2] was “Not Active”. For the same compound, the Ki [2] was “Not Active”, the IC50 [3] was “Not Active” and the IC50 [4] was “Not Active”. The Ki [4] was “Not Active” and the IC50 ([6]; cho-k1) was “Not Active”.

For `CC[C@@H](CO)NC(=O)[C@@H]1C=C2c3cccc4[nH]cc(c34)C[C@H]2N(C)C1` [METHYLERGONOVINE], the IC50 [1] was “Not Active”, the Ki [1] was “Not Active” and the IC50 [2] was “Not Active”. The Ki [2] was “Not Active”, the IC50 [3] was “Not Active” and the IC50 [4] was “Not Active”. The Ki [4] was “Not Active” and the IC50 ([5]; insect cells) was “Not Active”.

With `Cc1cccc(N(C)C(=S)Oc2ccc3ccccc3c2)c1` [TOLNAFTATE] the IC50 [1] was “Not Active”, the Ki [1] was “Not Active” and the IC50 [2] was “Not Active”. The Ki [2] was “Not Active”, the IC50 [3] was “Not Active” and the IC50 [4] was “Not Active”. The Ki [4] was “Not Active”, the IC50 ([5]; insect cells) was “Not Active” and the IC50 ([6]; cho-k1) was “Not Active”.

In the case of `Cc1oncc1C(=O)Nc1ccc(C(F)(F)F)cc1` [LEFLUNOMIDE], the IC50 [1] is reported as “Not Active”, the Ki [1] is reported as “Not Active” and the IC50 [2] is reported as “Not Active”. The Ki [2] was “Not Active”, the IC50 [3] was “Not Active” and the IC50 [4] was “Not Active”. For the same compound, the Ki [4] was “Not Active”, the IC50 ([5]; insect cells) was “Not Active” and the IC50 ([6]; cho-k1) was “Not Active”.

For `Nc1nc2ccc(OC(F)(F)F)cc2s1` [RILUZOLE], the IC50 [1] was “Not Active”, the Ki [1] was “Not Active” and the IC50 [2] was “Not Active”. The Ki [2] was “Not Active”, the IC50 [3] was “Not Active” and the IC50 [4] was “Not Active”. The Ki [4] was “Not Active”, the IC50 ([5]; insect cells) was “Not Active” and the IC50 ([6]; cho-k1) was “Not Active”.

For `Cc1c(C)c2c(c(C)c1O)CCC(C)(COc1ccc(CC3SC(=O)NC3=O)cc1)O2` (stereo not given) [TROGLITAZONE], the IC50 [1] was “Not Active”, the Ki [1] was “Not Active” and the IC50 [2] was “Not Active”. The Ki [2] was “Not Active”, the IC50 [3] was “Not Active” and the IC50 [4] was “Not Active”. For the same compound, the Ki [4] was “Not Active”, the IC50 ([5]; insect cells) was “Not Active” and the IC50 ([6]; cho-k1) was “Not Active”.

In the case of `Cc1nc2n(c(=O)c1CCN1CCC(c3noc4cc(F)ccc34)CC1)CCCC2` [RISPERIDONE], the IC50 [3] is reported as “Not Active”, the IC50 ([5]; insect cells) is reported as “Not Active” and the IC50 ([6]; cho-k1) is reported as “Not Active”.
